Test results reported in publication PMC7497086, “Fluorophore‐Labeled Cyclic Nucleotides as Potent Agonists of Cyclic Nucleotide‐Regulated Ion Channels” (Chembiochem, 2020).
“And” between values parts separate entries of the source, which are not always exact repeats. Equal entries are not always repeated. “Also recorded” adds a separate entry of the source.

Columns and labels:
Assay type in all cases: biochemical
[1] = biological target: T1, Homotetrameric CNGA2 channels (Rattus norvegicus, UniProt Q00195); experiment: Patch-clamp activation of homotetrameric CNGA2 channels, inside-out patches of Xenopus oocytes; conditions: for H a (Hill coefficient of activation) / EC50: inside-out patches; for EC50: concentration of half maximum activation
T1 construct: expressed in transfected cells; host or cells: Xenopus laevis oocytes injected with CNGA2 cRNA
T1 sequence (Q00195 1-664): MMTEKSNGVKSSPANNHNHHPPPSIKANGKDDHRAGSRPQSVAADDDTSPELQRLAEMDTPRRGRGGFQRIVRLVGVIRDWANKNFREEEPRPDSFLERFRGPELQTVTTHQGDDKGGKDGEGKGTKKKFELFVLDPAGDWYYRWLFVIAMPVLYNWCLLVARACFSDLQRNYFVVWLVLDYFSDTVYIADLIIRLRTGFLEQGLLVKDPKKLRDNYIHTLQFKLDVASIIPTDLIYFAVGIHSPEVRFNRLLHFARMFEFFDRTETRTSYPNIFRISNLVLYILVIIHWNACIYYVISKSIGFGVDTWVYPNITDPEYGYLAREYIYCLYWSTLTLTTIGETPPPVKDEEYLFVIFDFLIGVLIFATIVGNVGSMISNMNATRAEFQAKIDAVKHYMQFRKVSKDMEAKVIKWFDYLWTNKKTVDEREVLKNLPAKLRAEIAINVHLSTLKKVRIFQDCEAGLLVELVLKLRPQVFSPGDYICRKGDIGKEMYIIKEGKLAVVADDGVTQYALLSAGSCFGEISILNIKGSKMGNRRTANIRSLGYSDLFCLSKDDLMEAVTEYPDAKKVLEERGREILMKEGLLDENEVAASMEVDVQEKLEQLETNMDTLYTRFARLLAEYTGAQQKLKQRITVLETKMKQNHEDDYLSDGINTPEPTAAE
Text: Moreover, we studied the effect of the nucleotide derivatives on homotetrameric CNGA2 channels.
(§1) Molecular biology and heterologous expression of CNG and HCN channels: The subunits CNGA2 (accession No. AF126808), CNGA4 (accession no. U12623) and CNGB1b (accession no. AF068572) of rat olfactory channels as well as mouse HCN2 channels (NM008226) were subcloned in front of the T7 promoter of pGEMHEnew. The corresponding cRNAs were produced with the mMESSAGE mMACHINE T7 Kit (Ambion, Austin, TX, USA).
(§2) Oocytes at stages IV and V were injected with 50–130 ng cRNA encoding either CNGA2, CNGA2 : CNGA4 : CNGB1b (2 : 1 : 1 ratio) or HCN2 channels either manually or mediated by an injection robot (RoboInject®). The injected oocytes were incubated at 18 °C for up to 6 days in Barth's medium containing (in mM) 84 NaCl, 1 KCl, 2.4 NaHCO3, 0.82 MgSO4, 0.41 CaCl2, 0.33 Ca(NO3)2, 7.5 TRIS, cefuroxime (4.0 μg/mL) and penicillin/streptomycin (100 μg/mL), pH 7.4.
(§3) Electrophysiology: Macroscopic currents were recorded in inside‐out patches of the oocytes expressing hundreds to several thousand of the desired channels by using the patch‐clamp technique. The patch pipettes were pulled from quartz tubing (P‐2000, Sutter Instrument, Novato, USA) with an outer and inner diameter of 1.0 and 0.7 mm (VITROCOM, New Jersey, USA). The corresponding pipette resistance was 0.9–2.3 MΩ. The bath and pipette solution contained (in mM): 150 KCl, 1 EGTA, 20 HEPES (pH 7.4) for CNG channel measurements. For HCN channel measurements the bath solution contained (in mM): 100 KCl, 10 EGTA, 10 HEPES (pH 7.2) and the pipette (in mM) 120 KCl, 10 HEPES, 1 CaCl2 (pH 7.2). All experiments were performed at room temperature by using an Axopatch 200B amplifier (Axon Instruments, Foster City, CA, USA). Electrophysiology was controlled by the Patchmaster‐software (HEKA Elektronik Dr. Schulze GmbH, Lambrecht, Germany). The sampling rate was 5 kHz and the filter implemented in the amplifier (4‐pole Bessel) was set to 2 kHz. Measurements in HCN2 channels were started 3.5 minutes after patch excision, to minimize run down phenomena.18 The solutions with the different ligand concentrations to be studied were applied by a multi‐barrel device to the patches with a flow rate of 0.8 to 1.2 mL/min. The concentration of the fluorescent ligands was verified by UV/Vis spectroscopy.
(§4) where I is the actual current amplitude and I max the maximum current amplitude at saturating concentration of each cyclic nucleotide. EC 50 is the ligand concentration generating half maximum current and H a the respective Hill coefficient.

[2] = biological target: T2, homotetrameric HCN2 channels (Mus musculus, UniProt O88703); experiment: Patch-clamp activation of homotetrameric HCN2 channels, inside-out patches of Xenopus oocytes; conditions: 5 μM ligand; pulse from -30 mV to -130 mV; compared with saturating cAMP (20 μM)
T2 construct: expressed in transfected cells; host or cells: Xenopus laevis oocytes injected with HCN2 cRNA
T2 sequence (O88703 1-863): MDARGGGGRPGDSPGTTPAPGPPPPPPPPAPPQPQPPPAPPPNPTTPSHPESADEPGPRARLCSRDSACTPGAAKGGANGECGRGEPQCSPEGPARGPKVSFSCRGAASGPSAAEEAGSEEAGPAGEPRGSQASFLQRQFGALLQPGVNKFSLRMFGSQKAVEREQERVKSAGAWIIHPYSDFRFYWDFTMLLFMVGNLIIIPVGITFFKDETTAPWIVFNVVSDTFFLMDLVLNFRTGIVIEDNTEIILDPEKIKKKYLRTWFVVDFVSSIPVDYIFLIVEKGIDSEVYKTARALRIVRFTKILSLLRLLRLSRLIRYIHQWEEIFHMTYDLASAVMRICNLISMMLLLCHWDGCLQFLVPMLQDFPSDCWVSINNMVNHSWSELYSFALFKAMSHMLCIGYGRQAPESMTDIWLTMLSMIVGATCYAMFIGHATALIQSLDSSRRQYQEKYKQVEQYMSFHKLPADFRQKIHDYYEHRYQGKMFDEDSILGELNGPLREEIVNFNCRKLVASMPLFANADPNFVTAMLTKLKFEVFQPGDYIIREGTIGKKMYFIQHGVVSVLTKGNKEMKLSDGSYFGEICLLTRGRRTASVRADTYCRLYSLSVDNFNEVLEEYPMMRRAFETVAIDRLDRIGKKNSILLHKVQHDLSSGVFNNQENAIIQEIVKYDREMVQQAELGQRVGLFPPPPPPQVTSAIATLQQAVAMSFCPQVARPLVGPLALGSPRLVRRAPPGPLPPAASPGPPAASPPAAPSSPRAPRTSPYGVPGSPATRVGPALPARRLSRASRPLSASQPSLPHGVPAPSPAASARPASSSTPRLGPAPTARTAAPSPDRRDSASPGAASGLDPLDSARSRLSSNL
Experimental: On these channels the potency of cGMP and its derivatives is negligibly small. These measurements were performed in inside‐out patches as well. The channels were activated from a holding potential of −30 mV by a hyperpolarizing voltage pulse to −130 mV, followed by a short pulse to −100 mV, as described in the inset of Figure 3A. All recordings were carried out in the absence of a ligand at first and then with a solution containing 5 μM of the cyclic nucleotide to be tested.
as §1
The oocytes were incubated for 105 min in Ca^2+‐free Barth's solution containing collagenase A (3 mg/mL; Roche, Grenzach‐Wyhlen, Germany) and (in mM) 82.5 NaCl, 2 KCl, 1 MgCl2, 5 HEPES, pH 7.4. […]
Electrophysiology: Macroscopic currents were recorded in inside‐out patches of the oocytes expressing hundreds to several thousand of the desired channels by using the patch‐clamp technique. […]

[3] = biological target: T3, Heterotetrameric CNGA2:A4:B1b channels (Rattus norvegicus, UniProt A0A8I5ZN27+Q00195+Q64359); experiment: Patch-clamp activation of heterotetrameric olfactory CNGA2:A4:B1b channels, inside-out patches of Xenopus oocytes; conditions: for H a (Hill coefficient of activation) / EC50: inside-out patches, +10 mV; for EC50: concentration of half maximum activation
T3 construct: expressed in transfected cells; host or cells: Xenopus laevis oocytes injected with cRNA (CNGA2:CNGA4:CNGB1b at 2:1:1)
T3 sequence (Q64359 whole entry, one chain of several): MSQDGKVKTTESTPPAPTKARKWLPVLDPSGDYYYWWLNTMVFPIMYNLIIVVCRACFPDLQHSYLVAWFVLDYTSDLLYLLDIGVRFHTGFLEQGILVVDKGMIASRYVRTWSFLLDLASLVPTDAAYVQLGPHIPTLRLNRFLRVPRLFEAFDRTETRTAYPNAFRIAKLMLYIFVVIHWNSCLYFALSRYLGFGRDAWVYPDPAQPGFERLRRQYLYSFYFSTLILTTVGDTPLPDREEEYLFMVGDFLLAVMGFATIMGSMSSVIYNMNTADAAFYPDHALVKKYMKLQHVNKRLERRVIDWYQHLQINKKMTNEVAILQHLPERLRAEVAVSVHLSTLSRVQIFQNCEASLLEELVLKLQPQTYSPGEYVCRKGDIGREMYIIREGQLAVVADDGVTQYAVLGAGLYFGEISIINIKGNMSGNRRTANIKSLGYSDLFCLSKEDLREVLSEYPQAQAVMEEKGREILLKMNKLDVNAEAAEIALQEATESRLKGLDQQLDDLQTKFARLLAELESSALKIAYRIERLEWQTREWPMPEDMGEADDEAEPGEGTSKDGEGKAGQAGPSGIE
T3 sequence (A0A8I5ZN27 1-858 isoform A0A8I5ZN27-2, one chain of several): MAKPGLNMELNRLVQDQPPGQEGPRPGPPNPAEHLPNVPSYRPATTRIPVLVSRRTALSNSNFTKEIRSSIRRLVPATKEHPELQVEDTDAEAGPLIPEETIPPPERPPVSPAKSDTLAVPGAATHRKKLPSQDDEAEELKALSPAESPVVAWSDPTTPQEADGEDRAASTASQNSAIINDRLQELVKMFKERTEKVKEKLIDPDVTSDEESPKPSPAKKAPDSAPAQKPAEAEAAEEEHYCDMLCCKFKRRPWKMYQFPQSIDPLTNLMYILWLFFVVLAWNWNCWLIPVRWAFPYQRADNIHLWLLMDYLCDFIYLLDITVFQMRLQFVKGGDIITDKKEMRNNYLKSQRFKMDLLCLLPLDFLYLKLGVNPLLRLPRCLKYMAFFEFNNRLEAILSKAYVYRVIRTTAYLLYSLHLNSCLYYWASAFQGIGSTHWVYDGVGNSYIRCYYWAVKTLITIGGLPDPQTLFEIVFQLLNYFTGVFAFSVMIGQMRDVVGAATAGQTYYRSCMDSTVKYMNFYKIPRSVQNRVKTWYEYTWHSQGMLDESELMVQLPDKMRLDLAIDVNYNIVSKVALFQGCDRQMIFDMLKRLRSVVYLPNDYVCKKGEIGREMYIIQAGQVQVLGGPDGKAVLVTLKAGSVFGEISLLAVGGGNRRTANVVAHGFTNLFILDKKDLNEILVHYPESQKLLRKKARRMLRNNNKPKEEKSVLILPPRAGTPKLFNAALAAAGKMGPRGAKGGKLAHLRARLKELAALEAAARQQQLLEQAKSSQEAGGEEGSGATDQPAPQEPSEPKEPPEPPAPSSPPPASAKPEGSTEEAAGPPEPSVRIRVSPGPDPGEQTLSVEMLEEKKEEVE
Experimental: First, the effect of the compounds on olfactory CNG channels with natural composition was tested. […] To determine the potency of the ligands, full concentration‐activation relationships were generated. These relationships were fitted with Equation 1 (Experimental Section), yielding the concentration of half maximum activation (EC 50) and the Hill coefficient (H a).
as §1, §2, §3, §4

Question: With `NCCCCCc1ccc(Sc2nc3c(N)ncnc3n2[C@@H]2O[C@@H]3COP(=O)(O)O[C@H]3[C@H]2O)cc1` [Compound 6] as the compound, how does the “H a (Hill coefficient of activation)” value [1] read?
Answer: Its value is 2.51±0.05.

Question: What about the EC50 [1] of the same compound?
Answer: Its EC50 is 4720 ± 40 nM.

Question: What about the “effect on HCN2 current (activation speed and current amplitude)” value [2] of the same compound?
Answer: Its value is “accelerated the current and enhanced the amplitude”.

Question: And the “effect at elevated concentrations” value ([3]; elevated concentrations)?
Answer: Its value is “inhibitory effect”.

Question: And the “H a (Hill coefficient of activation)” value [3]?
Answer: Its value is 2.25±0.08.

Question: And the EC50 [3]?
Answer: Its EC50 is 750 ± 10 nM.

Question: For `CC1(C)C2=C3C=C4C5=[N+](CCC4OC3CCN2c2ccc(CC(=O)NCCCCCc3ccc(Sc4nc6c(N)ncnc6n4[C@@H]4O[C@@H]6COP(=O)(O)O[C@H]6[C@H]4O)cc3)cc21)c1ccc(S(=O)(=O)[O-])cc1C5(C)C` (stereo partly shown) [Compound 7], which “H a (Hill coefficient of activation)” value [1] is on record?
Answer: The value was 1.39 and 1.39±0.07.

Question: What about the EC50 [1] of the same compound?
Answer: The EC50 was 10000 ± 500 nM.

Question: And the “efficacy of channel activation” value ([1]; relative to maximum activation)?
Answer: The value was “did not generate maximum activation at 100 μM”.

Question: What about the “H a (Hill coefficient of activation)” value [3] of the same compound?
Answer: The value was 2.26±0.29.

Question: And the EC50 [3]?
Answer: The EC50 was 900 ± 40 nM.

Question: With `NCCCCCc1ccc(Sc2nc3c(=O)[nH]c(N)nc3n2[C@@H]2O[C@@H]3COP(=O)(O)O[C@H]3[C@H]2O)cc1` [Compound 9] as the compound, how does the “EC 50 (in words)” value [1] read?
Answer: Its value is “nanomolar range”.

Question: What about the “H a (Hill coefficient of activation)” value [1] of the same compound?
Answer: Its value is 2.52±0.08.

Question: What about the EC50 [1] of the same compound?
Answer: Its EC50 is 250 ± 10 nM.

Question: And the “H a (Hill coefficient of activation)” value [3]?
Answer: The value was 1.55±0.08.

Question: And the EC50 [3]?
Answer: The EC50 was 370 ± 10 nM.

Question: `NCCCCCc1ccc(-c2nc3c(N)ncnc3n2[C@@H]2O[C@@H]3COP(=O)(O)O[C@H]3[C@H]2O)cc1` [Compound 12] was tested. Which “H a (Hill coefficient of activation)” value [1] did it give?
Answer: Its value is 2.14±0.10.

Question: What about the EC50 [1] of the same compound?
Answer: Its EC50 is 16300 ± 500 nM.

Question: And the “effect on HCN2 current (activation speed and current amplitude)” value [2]?
Answer: Its value is “no effect; also recorded: almost ineffective”.

Question: And the agonist efficacy ([3]; current maxima normalized to saturating cAMP (500 μM))?
Answer: The agonist efficacy was “only a partial agonist”.

Question: What about the “H a (Hill coefficient of activation)” value [3] of the same compound?
Answer: The value was 2.23±0.05.

Question: What about the EC50 [3] of the same compound?
Answer: Its EC50 is 10700 ± 100 nM.

Question: What does the source list for `NCCCCCc1ccc(-c2nc3c(=O)[nH]c(N)nc3n2[C@@H]2O[C@@H]3COP(=O)(O)O[C@H]3[C@H]2O)cc1` [Compound 13]?
Answer: H a (Hill coefficient of activation) [1]: 2.28±0.28; EC50 [1]: 2410 ± 150 nM; H a (Hill coefficient of activation) [3]: 1.74±0.11; EC50 [3]: 7020 ± 260 nM

Question: `Nc1ncnc2c1ncn2[C@@H]1O[C@@H]2COP(=O)(O)O[C@H]2[C@H]1O` [cAMP, reference compound] was tested. Which “H a (Hill coefficient of activation)” value [3] did it give?
Answer: Its value is 2.08±0.12.

Question: How did the “H a (Hill coefficient of activation)” value [1] turn out when `Nc1nc2c(ncn2[C@@H]2O[C@@H]3COP(=O)(O)O[C@H]3[C@H]2O)c(=O)[nH]1` [cGMP, reference compound] was run?
Answer: The value was 2.48±0.05.

Question: And the EC50 [1]?
Answer: The EC50 was 1770 ± 20 nM.

Question: And the “H a (Hill coefficient of activation)” value [3]?
Answer: The value was 2.11±0.23.

Question: And the EC50 [3]?
Answer: The EC50 was 1360 ± 70 nM.
